Series [1] is described as follows: Toxicity in ip dosed BALB/c mouse assessed as inflammatory cell infiltration in lung at LD50 dose by H and E staining based assay. Type of series: organism-based. Conditions: in vivo.
Series [2] relates to Staphylococcus aureus. Briefly: Antibacterial activity against Staphylococcus aureus ATCC 25923 infected in BALB/c mouse systemic infection model assessed as reduction in inflammatory response in lung tissue at 20 mg/kg, ip pre-infected for 2 hrs followed by compound addition and measured after 8 hrs postinfection. Type of series: functional, organism-based. Conditions: time 6.0 hrs.

For series [3], the system named is Staphylococcus aureus. Briefly: Antibacterial activity against Staphylococcus aureus ATCC 25923 infected in BALB/c mouse systemic infection model assessed as improved alveoli dilation at 20 mg/kg, ip pre-infected for 2 hrs followed by compound addition and measured after 8 hrs postinfection. It counts as functional, organism-based. The note with it: time 6.0 hrs.

The nature of series [4]: Toxicity in BALB/c mouse assessed as mortality at 40 to 130 mg/kg, ip measured after 14 days. The note with it: in vivo, 336 h, dose 40-130 mg/kg, time 14 day. It counts as organism-based.
Series [5] can be described thus: Toxicity in ip dosed BALB/c mouse assessed as hemorrhage in kidney at LD50 dose by H and E staining based assay. Type of series: organism-based. The note with it: in vivo.
For series [6], the system named is Staphylococcus aureus. Put plainly: Antibacterial activity against Staphylococcus aureus ATCC 25923 assessed as fold increase in MIC preincubated with serum for 6 hrs followed by 15 mins inactivation prior to bacteria addition and measured after 18 to 24 hrs. Conditions: time 18-24 hrs. It counts as functional.
Series [7] deals with Staphylococcus aureus. Briefly: Antibacterial activity against Staphylococcus aureus ATCC 25923 infected in BALB/c mouse systemic infection model assessed as reduction in bacterial load in kidney at 20 mg/kg, ip pre-infected for 2 hrs followed by compound addition and measured after 8 hrs postinfection. It counts as functional, organism-based. Conditions: time 6.0 hrs.
Series [8] relates to Staphylococcus aureus. Briefly: Antibacterial activity against Staphylococcus aureus ATCC 25923 infected in BALB/c mouse systemic infection model assessed as reduction in bacterial load in spleen at 20 mg/kg, ip pre-infected for 2 hrs followed by compound addition and measured after 8 hrs postinfection. Type of series: functional, organism-based. Conditions: time 6.0 hrs.
Series [9] deals with Klebsiella pneumoniae. Put plainly: Antibacterial activity against Klebsiella pneumoniae ATCC 700603 infected in BALB/c mouse lung infection model assessed as increased healing at 5 mg/kg, ip administered twice daily for 3 days and measured for 7 days. Type of series: functional, organism-based. The note with it: time 10.0 day.
The subject of series [10] is Klebsiella pneumoniae. Briefly: Antibacterial activity against Klebsiella pneumoniae ATCC 700603 infected in BALB/c mouse lung infection model assessed as improved alveolar aggregation at 5 mg/kg, ip administered twice daily for 3 days and measured after 7 days. Type of series: functional, organism-based. The note with it: time 10.0 day.
Series [11] concerns Escherichia coli. Briefly: Antibacterial activity against Escherichia coli ATCC 25922 in presence of ZnCl2. It counts as functional, organism-based.
For series [12], the system named is Escherichia coli. Briefly: Antibacterial activity against Escherichia coli ATCC 25922 assessed as fold increase in MIC in presence of MgCl2. It counts as functional.
Series [13] has as its system Klebsiella pneumoniae. Put plainly: Antibacterial activity against Klebsiella pneumoniae ATCC 700603 infected in BALB/c mouse lung infection model assessed as alveolar dilation at 5.31 mg/kg, ip administered twice daily for 3 days and measured after 7 days. Conditions: time 10.0 day. Type of series: functional, organism-based.
Series [14] has as its system Staphylococcus aureus. Briefly: Antibacterial activity against Staphylococcus aureus ATCC 25923 in presence of FeCl3. It counts as functional, organism-based.
Series [15] deals with Staphylococcus aureus. Put plainly: Antibacterial activity against Staphylococcus aureus ATCC 25923 preincubated with serum for 6 hrs followed by 15 mins inactivation prior to bacteria addition and measured after 18 to 24 hrs. It counts as functional, organism-based. The note with it: time 18-24 hrs.
Series [16] deals with Staphylococcus aureus. Briefly: Antibacterial activity against Staphylococcus aureus ATCC 25923 in presence of ZnCl2. It counts as functional, organism-based.
Series [17] can be described thus: Toxicity in ip dosed BALB/c mouse assessed as liver edema at LD50 dose by H and E staining based assay. Type of series: organism-based. Conditions: in vivo.
In series [18] the test system is Escherichia coli. Briefly: Antibacterial activity against Escherichia coli ATCC 25922 in presence of […]. It counts as functional, organism-based.
Series [19] concerns Staphylococcus aureus. Put plainly: Antibacterial activity against Staphylococcus aureus ATCC 25923 infected in BALB/c mouse systemic infection model assessed as reduction in inflammatory response in lung tissue at 21.21 mg/kg, ip pre-infected for 2 hrs followed by compound addition and measured after 8 hrs postinfection. Type of series: functional, organism-based. Conditions: time 6.0 hrs.

Series [20] deals with Klebsiella pneumoniae. Put plainly: Bactericidal activity against Klebsiella pneumoniae ATCC 700603 at 2 times MIC within 60 mins by time kill assay. Type of series: functional, organism-based.
Series [21] is described as follows: Toxicity in BALB/c mouse assessed as mortality at 220 to 350 mg/kg, ip measured after 14 days. It counts as organism-based. The note with it: in vivo, 336 h, dose 220-350 mg/kg, time 14 day.
Series [22] relates to Staphylococcus aureus. Put plainly: Antibacterial activity against Staphylococcus aureus ATCC 25923 assessed as fold increase in MIC in presence of Na+. Type of series: functional.
The subject of series [23] is Staphylococcus aureus. Put plainly: Antibacterial activity against Staphylococcus aureus ATCC 25923 infected in BALB/c mouse systemic infection model assessed as reduction in bacterial load in kidney at 21.21 mg/kg, ip pre-infected for 2 hrs followed by compound addition and measured after 8 hrs postinfection. Type of series: functional, organism-based. Conditions: time 6.0 hrs.

In series [24] the test system is Klebsiella pneumoniae. Briefly: Antibacterial activity against Klebsiella pneumoniae ATCC 700603 infected in BALB/c mouse lung infection model assessed as removal of bacterial load at 5.31 mg/kg, ip administered twice daily for 3 days and measured after 6 days. Conditions: time 9 day. It counts as functional.
In series [25] the test system is Klebsiella pneumoniae. Put plainly: Antibacterial activity against Klebsiella pneumoniae ATCC 700603 infected in BALB/c mouse lung infection model assessed as improved alveolar aggregation at 5.31 mg/kg, ip administered twice daily for 3 days and measured after 7 days. It counts as functional, organism-based. The note with it: time 10.0 day.

Calls of active or inactive are those of the source. The calls are words filed in the database; no cut-off is given here. Non-standard residues stand in square brackets, D forms with d. Residues, ends and D or L forms follow the SMILES beside them. Bip = N[C@@H](Cc1ccc(-c2ccccc2)cc1)C(=O)O; pY = N[C@@H](Cc1ccc(OP(=O)(O)O)cc1)C(=O)O

On to `CC(C)C[C@H](NC(=O)[C@H](CC(C)C)NC(=O)[C@H](Cc1ccc(O)cc1)NC(=O)[C@H](CCCCN)NC(=O)[C@H](CC(C)C)NC(=O)[C@H](CCCNC(=N)N)NC(=O)[C@H](CCCCN)NC(=O)[C@H](Cc1ccc(-c2ccccc2)cc1)NC(=O)[C@H](CC(C)C)NC(=O)CN)C(N)=O` (H-GL[Bip]KRLKYLL-NH2), for which the Activity result in series [1], in series [4] and in series [5] was “Toxic” throughout. Besides, the outcome in the series on Staphylococcus aureus [2], with Staphylococcus aureus [3], in the series on Staphylococcus aureus [7], with Staphylococcus aureus [8], in the series with Klebsiella pneumoniae [9] and with Klebsiella pneumoniae [10] was Active. Besides, in the series with Staphylococcus aureus [6], the “fold change (FC)” value came to 2.
`CC(C)C[C@H](NC(=O)[C@H](CC(C)C)NC(=O)[C@H](Cc1ccc(OP(=O)(O)O)cc1)NC(=O)[C@H](CCCCN)NC(=O)[C@H](CC(C)C)NC(=O)[C@H](CCCNC(=N)N)NC(=O)[C@H](CCCCN)NC(=O)[C@H](Cc1ccc(-c2ccccc2)cc1)NC(=O)[C@H](CC(C)C)NC(=O)CN)C(N)=O` (H-GL[Bip]KRLK[pY]LL-NH2): the Activity entry is given as “Active; Compound Showed Excellent Tolerance Towards Salt Environment” in the series on Escherichia coli [11]; “Active; Compound Showed Excellent Tolerance Towards Salt Environment” in the series on Staphylococcus aureus [14]; “Active; Antibacterial Activity Remained Unaffected” in the series with Staphylococcus aureus [15]; “Active; Compound Showed Excellent Tolerance Towards Salt Environment” in the series on Staphylococcus aureus [16]; “Toxic” in series [17]; “Active; Compound Showed Excellent Tolerance Towards Salt Environment” in the series with Escherichia coli [18]. In addition, the Activity entry in [21] is reported as “Toxic”; with Staphylococcus aureus [22], “Active; Compound Showed Excellent Tolerance Towards Salt Environment”; in the series on Klebsiella pneumoniae [24], 100%. For the same molecule, in the series on Escherichia coli [12], the “fold change (FC)” value amounted to 2. Further, the outcome with Klebsiella pneumoniae [13], in the series on Staphylococcus aureus [19], in the series on Klebsiella pneumoniae [20], in the series on Staphylococcus aureus [23] and in the series on Klebsiella pneumoniae [25] was Active.

(Values after ChEMBL document CHEMBL6092167, “Phosphorylation as an Effective Tool to Improve Stability and Reduce Toxicity of Antimicrobial Peptides” (J Med Chem, 2024).)
